In patent US20250144067A1, “PERSONALIZED STARVATION THERAPY FOR CANCER” (Faeth Therapeutics, Inc., priority 2021, published 2025):
Counter-ions that a name gives are not always drawn.

How the values were obtained:
[1] = test system: NCI-H292 lung cancer cells; assay: FDA drug screening, complete media vs cholesterol-free media without statin (TABLE 1); assay type: cell-based, human
[2] = test system: NCI-H292 lung cancer cells; assay: FDA drug screening, complete media vs cholesterol-free media with simvastatin (TABLE 2); assay type: cell-based, human; settings: for Cholesterol-free media + simvastatin (0.04 μM) / Complete Media: NCI-H292 cells
[3] = NCI-H292 cells, cholesterol-free media without statin
[4] = complete vs cholesterol-free media, greater than 0 enhanced anti-cancer activity, about 0 neutral, below 0 antagonists
[5] = cholesterol-free media with simvastatin 0.04 μM, FDA drug library screen (TABLE 2)
[6] = complete media, FDA drug library screen (TABLE 2)
[7] = complete media minus cholesterol-free media + simvastatin (0.04 μM), >0 enhanced anti-cancer activity, about 0 neutral, <0 antagonist
[8] = Complete minus Cholesterol-free, >0 enhanced anti-cancer activity, about 0 neutral, <0 antagonist
[9] = FDA drug library screen, cholesterol-free media with simvastatin 0.04 μM
[10] = FDA drug library screen, complete media
[11] = complete media minus cholesterol-free media + simvastatin, >0 enhanced anti-cancer activity, about 0 neutral, <0 antagonist
[12] = NCI-H292 cells, cholesterol-free media without statin, FDA drug library screen
[13] = NCI-H292 cells, complete media, FDA drug library screen
[14] = complete vs cholesterol-free media, >0 enhanced anti-cancer activity, about 0 neutral, <0 antagonist
[15] = drug in cholesterol-free media with simvastatin 0.04 μM
[16] = complete media vs cholesterol-free media + simvastatin (0.04 μM), >0 enhanced anti-cancer activity, about 0 neutral, <0 antagonist
[17] = Complete minus Cholesterol-free, greater than 0 enhanced anti-cancer activity, about 0 neutral, below 0 antagonist
[18] = NCI-H292 cells, FDA drug library screen, cholesterol-free media without statin
[19] = NCI-H292 cells, FDA drug library screen, complete media
[20] = Complete minus Cholesterol-free, greater than 0 enhanced anti-cancer activity, about 0 neutral, below 0 antagonists
[21] = NCI-H292 cells in cholesterol-free media without statin
[22] = NCI-H292 cells in complete media
[23] = FDA library drug in cholesterol-free media with simvastatin 0.04 μM
[24] = FDA library drug in complete media
[25] = cholesterol-free media with simvastatin 0.04 μM, cell growth value in FDA drug screen
[26] = complete media, cell growth value in FDA drug screen
[27] = complete vs cholesterol-free media, […]
[28] = complete media vs cholesterol-free media + simvastatin (0.04 μM), […]
[29] = Complete minus Cholesterol-free, […]

Cc1c(O)c(=O)ccn1C [Deferiprone]
Cholesterol-free [1, 3]: 1.443
Complete ([1]; NCI-H292 cells, complete media): 1.044
Difference [1, 4]: −0.40
Cholesterol-free media + simvastatin (0.04 μM) [2, 5]: 1.047
Complete Media [2, 6]: 1.061
Difference [2, 7]: 0.01

CN(C)CCOC(c1ccccc1)c1ccccc1 [Diphenhydramine (hydrochloride)]
Difference [1, 8]: −0.19
Cholesterol-free [1, 3]: 1.083
Complete ([1]; NCI-H292 cells, complete media): 0.8936
Cholesterol-free media + simvastatin (0.04 μM) [2, 9]: 0.5789
Complete Media [2, 10]: 0.7429
Difference [2, 11]: 0.16

CC(=O)Oc1cc2c(s1)CCN(C(C(=O)C1CC1)c1ccccc1F)C2 (stereo not shown) [Prasugrel (hydrochloride)]
Cholesterol-free [1, 12]: 0.9393
Complete [1, 13]: 1.044
Difference [1, 14]: 0.10
Cholesterol-free media + simvastatin (0.04 μM) [2, 15]: 1.213
Complete Media ([2]; drug in complete media): 1.05
Difference [2, 16]: −0.16

Cl.N[C@H]1C(O)O[C@H](CO)[C@@H](O)[C@@H]1O (stereo partly shown) [Glucosamine (hydrochloride)]
Difference [1, 17]: −0.17
Cholesterol-free [1, 18]: 1.116
Complete [1, 19]: 0.9464
Cholesterol-free media + simvastatin (0.04 μM) [2, 9]: 0.9525
Complete Media [2, 10]: 1.178
Difference [2, 11]: 0.23

C1N2CN3CN1CN(C2)C3.O=C(O)CNC(=O)c1ccccc1 [Methenamine (hippurate)]
Difference [1, 8]: 0.05
Cholesterol-free [1, 12]: 0.09528
Complete [1, 13]: 0.1431
Cholesterol-free media + simvastatin (0.04 μM) [2, 5]: 0.3855
Complete Media [2, 6]: 0.3286
Difference [2, 7]: −0.06

CC(=O)Oc1ccccc1C(=O)Nc1ncc([N+](=O)[O-])s1 [Nitazoxanide]
Cholesterol-free [1, 12]: 1.033
Difference [1, 14]: 0.12
Cholesterol-free media + simvastatin (0.04 μM) [2, 5]: 1.209
Complete Media [2, 6]: 1.209
Difference [2, 7]: 0.00

CN(C/C=C/c1ccccc1)Cc1cccc2ccccc12 [Naftifine (hydrochloride)]
Difference [1, 20]: −0.88
Cholesterol-free [1, 21]: 1.921
Complete [1, 22]: 1.037
Cholesterol-free media + simvastatin (0.04 μM) [2, 9]: 0.9055
Complete Media [2, 10]: 1.136
Difference [2, 11]: 0.23

O.O.O.O.O.O.O.O=C1N=C([O-])CN1/N=C/c1ccc(-c2ccc([N+](=O)[O-])cc2)o1.O=C1N=C([O-])CN1/N=C/c1ccc(-c2ccc([N+](=O)[O-])cc2)o1.[Na+].[Na+] [Dantrolene (sodium hemiheptahydrate)]
Cholesterol-free [1, 3]: 1.274
Complete ([1]; NCI-H292 cells, complete media): 0.9468
Difference [1, 4]: −0.33
Cholesterol-free media + simvastatin (0.04 μM) [2, 23]: 1.565
Complete Media [2, 24]: 1.218
Difference [2, 16]: −0.35

CC(C)(O)CNc1nc(Nc2ccnc(C(F)(F)F)c2)nc(-c2cccc(C(F)(F)F)n2)n1 [Enasidenib]
Difference [1, 8]: −0.30
Cholesterol-free [1, 3]: 1.312
Complete ([1]; NCI-H292 cells, complete media): 1.013
Cholesterol-free media + simvastatin (0.04 μM) [2, 25]: 0.8158
Complete Media [2, 26]: 0.8552
Difference [2, 11]: 0.04

Alimemazine hemitartrate
Difference [1, 8]: 0.05
Cholesterol-free [1, 12]: 1.186
Complete [1, 13]: 1.239
Cholesterol-free media + simvastatin (0.04 μM) [2, 9]: 0.9971
Complete Media [2, 10]: 1.335
Difference [2, 11]: 0.34

NC(=O)NO [Hydroxyurea]
Difference [1, 20]: −0.79
Cholesterol-free [1, 21]: 1.72
Complete [1, 22]: 0.9327
Cholesterol-free media + simvastatin (0.04 μM) [2, 23]: 1.418
Complete Media [2, 24]: 1.131
Difference [2, 16]: −0.29

OC[C@H]1O[C@@H](c2ccc(F)c(Cc3cc4ccccc4s3)c2)[C@H](O)[C@@H](O)[C@@H]1O [Ipragliflozin]
Difference [1, 20]: −0.87
Cholesterol-free [1, 21]: 1.769
Complete [1, 22]: 0.8999
Cholesterol-free media + simvastatin (0.04 μM) [2, 25]: 0.8889
Complete Media [2, 26]: 0.9547
Difference [2, 11]: 0.07

Bivalirudin (TFA)
Cholesterol-free [1, 12]: 1.02
Complete [1, 13]: 1.118
Difference [1, 27]: 0.10
Complete Media [2, 10]: 0.9368
Difference [2, 28]: −0.13

N#Cc1ccc2c(c1)N(CCCN1CCC(O)CC1)c1ccccc1S2 [Pericyazine]
Difference [1, 17]: −0.09
Cholesterol-free [1, 18]: 0.9265
Complete [1, 19]: 0.8353
Cholesterol-free media + simvastatin (0.04 μM) [2, 5]: 1.378
Complete Media [2, 6]: 1.353
Difference [2, 7]: −0.02

NC(CO)(CO)CO [Trometamol]
Cholesterol-free [1, 3]: 1.471
Complete ([1]; NCI-H292 cells, complete media): 1.133
Difference [1, 4]: −0.34
Cholesterol-free media + simvastatin (0.04 μM) [2, 9]: 1.116
Complete Media [2, 10]: 0.9694
Difference [2, 16]: −0.15

C[C@H]1C[C@@H]2[C@H]([C@@H](O)C[C@@]3(C)[C@H]2CC[C@]3(O)C(=O)COC(=O)CCC(=O)[O-])[C@@]2(C)C=CC(=O)C=C12.[Na+]
Difference [1, 8]: 0.02
Cholesterol-free [1, 12]: 0.6071
Complete [1, 13]: 0.6313
Cholesterol-free media + simvastatin (0.04 μM) [2, 9]: 0.7536
Complete Media [2, 10]: 0.682
Difference [2, 16]: −0.07

NCC1(CC(=O)O)CCCCC1 [Gabapentin (hydrochloride)]
Difference [1, 29]: −0.52
Cholesterol-free [1, 21]: 1.513
Complete [1, 22]: 0.9969
Cholesterol-free media + simvastatin (0.04 μM) [2, 5]: 1.09
Complete Media [2, 6]: 1.102
Difference ([2]; complete media minus cholesterol-free media + simvastatin (0.04 μM), […]): 0.01

CCn1cc(C(=O)O)c(=O)c2ccc(C)nc21 [Nalidixic acid]
Cholesterol-free [1, 3]: 1.332
Complete ([1]; NCI-H292 cells, complete media): 0.9692
Difference [1, 27]: −0.36
Cholesterol-free media + simvastatin (0.04 μM) [2, 15]: 1.203
Complete Media ([2]; drug in complete media): 0.9667
Difference [2, 28]: −0.24

Lefamulin (acetate)
Difference [1, 29]: −0.23
Cholesterol-free [1, 3]: 1.096
Complete ([1]; NCI-H292 cells, complete media): 0.8619
Cholesterol-free media + simvastatin (0.04 μM) [2, 9]: 1.429
Complete Media [2, 10]: 1.575
Difference ([2]; complete media minus cholesterol-free media + simvastatin, […]): 0.15

OC[C@@H](O)[C@H](O)[C@@H](O)CO [Xylitol]
Difference [1, 8]: −0.26
Cholesterol-free [1, 3]: 1.384
Complete ([1]; NCI-H292 cells, complete media): 1.123
Cholesterol-free media + simvastatin (0.04 μM) [2, 15]: 1.234
Complete Media ([2]; drug in complete media): 1.073
Difference [2, 16]: −0.16

CC(C)(C)OC(=O)N[C@H]1CCCCC/C=C\[C@@H]2C[C@@]2(C(=O)NS(=O)(=O)C2CC2)NC(=O)[C@@H]2C[C@@H](OC(=O)N3Cc4cccc(F)c4C3)CN2C1=O [Danoprevir]
Cholesterol-free [1, 12]: 0.802
Complete [1, 13]: 1.257
Difference [1, 14]: 0.45
Cholesterol-free media + simvastatin (0.04 μM) [2, 5]: 0.8835
Complete Media [2, 6]: 0.8799
Difference [2, 7]: 0.00

CC(C)(C)C(=O)Oc1ccc(S(=O)(=O)Nc2ccccc2C(=O)NCC(=O)O)cc1 [Sivelestat (sodium tetrahydrate)]
Difference [1, 8]: −0.30
Cholesterol-free [1, 3]: 1.29
Complete ([1]; NCI-H292 cells, complete media): 0.9928
Cholesterol-free media + simvastatin (0.04 μM) [2, 5]: 1.071
Complete Media [2, 6]: 1.039
Difference [2, 7]: −0.03

CC(C)C(Br)C(=O)NC(N)=O (stereo not shown) [Bromisoval]
Difference [1, 29]: −0.47
Cholesterol-free [1, 21]: 1.334
Complete [1, 22]: 0.8605
Cholesterol-free media + simvastatin (0.04 μM) [2, 15]: 1.086
Complete Media ([2]; drug in complete media): 0.9233
Difference [2, 28]: −0.16
